Reference: patent US20060292657A1, “Phex substrates and methods using same” (priority 2003, published 2006)
Square brackets hold non-standard residues; d marks the D form. Primed or numbered codes have the meaning given here. Ends that are not written are not given here. Peptide text beside a SMILES is read from it. * marks the point of attachment. EDDnp = O=[N+]([O-])c1ccc(NCCN*)c([N+](=O)[O-])c1; Dnp = O=[N+]([O-])c1ccc(*)c([N+](=O)[O-])c1; Dnp′ = 2,4-dinitrophenyl; 2Abz = Nc1ccccc1C(=O)O

Assays:
Format in all cases: biochemical
secPHEX [1] = biological target: T1, secPHEX (Homo sapiens, UniProt P78562); assay: Kinetic parameters for hydrolysis of internally quenched fluorogenic peptides by secPHEX; conditions: for hydrolysis by secPHEX (result in words): 37° C., 10 mM Bis-Tris buffer pH 5.5, 150 mM NaCl
T1 construct: pure soluble form of PHEX (secPHEX); made in house
T1 sequence (P78562 46-749 limits assumed): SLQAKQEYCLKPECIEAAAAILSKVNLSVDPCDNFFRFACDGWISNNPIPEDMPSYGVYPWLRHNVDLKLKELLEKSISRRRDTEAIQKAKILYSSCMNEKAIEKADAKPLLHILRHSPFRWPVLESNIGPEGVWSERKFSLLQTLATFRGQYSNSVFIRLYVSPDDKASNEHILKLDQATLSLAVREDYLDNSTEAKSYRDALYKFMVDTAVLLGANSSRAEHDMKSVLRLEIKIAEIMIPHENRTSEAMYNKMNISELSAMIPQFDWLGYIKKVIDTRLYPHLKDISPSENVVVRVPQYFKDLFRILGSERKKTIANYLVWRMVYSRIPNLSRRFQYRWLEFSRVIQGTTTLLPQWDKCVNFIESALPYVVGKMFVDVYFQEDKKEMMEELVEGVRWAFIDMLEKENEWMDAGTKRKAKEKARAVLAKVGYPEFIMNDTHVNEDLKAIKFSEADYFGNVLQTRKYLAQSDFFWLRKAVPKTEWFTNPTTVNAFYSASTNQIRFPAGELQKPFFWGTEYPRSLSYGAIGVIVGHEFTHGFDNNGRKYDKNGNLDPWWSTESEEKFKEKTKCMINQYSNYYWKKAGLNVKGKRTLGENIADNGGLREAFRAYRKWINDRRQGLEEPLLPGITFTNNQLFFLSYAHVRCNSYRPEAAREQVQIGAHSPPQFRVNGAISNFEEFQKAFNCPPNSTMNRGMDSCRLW
Description: The human recombinant secPHEX was obtained following the procedure previously described (17, WO 00/50580). Purified secPHEX concentration was determined using the Bradford method (DC protein assay kit; Bio-Rad, Mississauga, ON, Canada). Membrane-bound recombinant human PHEX was expressed in LLC-PK1 cells (17, (WO 00/50580)) and membranes were prepared essentially as described by Guo et al. (34). Briefly, transfected cells resuspended in lysis buffer (150 mM NaCl, 20 mM Tris.HCl, pH 7.6) were disrupted by sonication. Cell debris were removed by centrifugation at 300 g for 15 min at 4 °C. Membranes were collected by centrifugation at 30,000 g for 50 min and solubilized for 2h with 1% n-dodecyl-β-D-maltoside in lysis buffer. Insoluble material was pelleted by centrifugation at 10,000 g for 15 min and protein concentrations of the supernatant determined using the Bradford method described above. PHEX amounts were evaluated by immunoblotting as described previously (17). NEP expression and purification were performed as described previously (36).
The hydrolysis of the IQFPs, at 37° C., in 10 mM Bit-Tris buffer pH 5.5 (0.35 to 1.0 ml final volume) containing 150 mM NaCl, was continuously followed measuring the fluorescence at γem=420 nm and γex=320 nm in a Hitachi F-2000™ spectrofluorometer. The cuvefte containing the buffer and the substrate was placed in a thermostatically controlled cell compartment for 5 min before the addition of the enzyme and the increase in fluorescence with time was continuously recorded for 5-10 min. The enzyme concentration for initial rate determination was chosen at a level intended to hydrolyze less than 5% of the substrate present. […] The kinetic parameters Km and kcat were calculated by the non-linear regression data analysis Grafit program (42). The kcat/Km values were calculated as the ratio of these two determined parameters. The apparent second order rate constant kcat/Km (*kIt/Km) was determined under pseudo first-order conditions, where [S]<<Km. […]

secPHEX [2] = biological target: T1, secPHEX; assay: Determination of secPHEX activity and concentration in serum with fluorigenic substrate; conditions: activity determination in serum
Description: FIG. 6 graphically illustrates the secPHEX enzymatic activity on a fluorigenic substrate of the present invention in rat serum. The observed fluorescence increase was proportional to the reaction product formation. The reaction was carried out in a total volume of 200 μl constituted of buffer: 50 mM Hepes (NaOH) pH 7.4, 150 mM NaCl, 5*10−6 M captopril (ACE inhibitor), containing 10 μl of rat serum in which purified sPHEX was spiked. The enzymatic reaction was initiated by the addition of the fluorigenic substrate (Abz-GFSDYK-Dnp) (SEQ ID NO:3) at a final concentration of 20 μM. The fluorescent reaction product was excited at 320 nm and fluorescence recorded at 420 nm every four minutes over a one-hour period in a 96-well plate reader (Perkin-Elmer, HTS-7000). The initial enzymatic speed rate of the reaction was calculated for each condition. The reaction was carried out in presence of 5 mM EDTA to assess whether the assay is specific to metallopeptidase. Measurements were done in duplicates.
secPHEX enzymatic activity was determined using a fluorigenic substrate where increase of fluorescence was proportional to substrate conversion to products. […] Of these, S3 was the most preferred substrate. […]
The reaction was carried out in a total volume of 200 μl constituted of buffer (50 mM Mes(NaOH) pH 6.5, 150 mM NaCl, 5×10^−6 M captopril (ACE inhibitor)) and serum (preferably between 2 to 50 μl). […] The fluorescent reaction product is excited at 320 nm with fluoresce emission read at 420 nm every four minutes over a one-hour period using 96-well plate reader (Perikin-Elmer, HTS-7000™). The initial reaction rate was calculated from the acquired fluorescence-time data as a slope using Microsoft Excell™. PHEX Enzymatic activity (Vi) was calculated by subtracting to the initial rate of fluorescence (Vitot) with the same measured in presence of EDTA 5 mM (ViEDTA). […]
The actual secPHEX concentration was determined from a calibration curve (Vi Vs secPHEX concentration) obtained by serial dilution of secPHEX in serum or other biological media as required.

secPHEX [3] = biological target: T1, secPHEX; assay: IC50 determination of PHEX inhibitor, fluorigenic substrate assay
Description: secPHEX enzymatic activity was determined using a fluorigenic substrate where increase of fluorescence was proportional to substrate conversion to products. […] Of these, S3 was the most preferred substrate. S3 was synthesized as described above.
The reaction was carried out in a total volume of 200 μl constituted of buffer (50 mM Mes(NaOH) pH 6.5, 150 mM NaCl) containing various concentrations of the tested PHEX inhibitor (3×10^−5 to 1×10^−11 M) and 100 ng of purified secPHEX. The enzymatic reaction was initiated with the addition of the fluorigenic substrate at a final concentration of 10 μM. The fluorescent reaction product was excited at 320 nm with fluoresce emission read at 420 nm every four minutes over a one-hour period using 96-well plate reader (Perkin-Elmer, HTS-7000™). The initial reaction rate was calculated from the acquired fluorescence-time data as a slope using Microsoft Excell™. Further examples can be found in the co-pending PCT application number PCT/CA03/01893.
IC50 was determined with a plot of the initial rates computed above as a function of inhibitor concentration using the one site competition equation of GraphPad Prism™ version 3.03 (GraphPad™ Software Inc.).

Compound: NC(=O)[C@H](CCCCNc1ccc([N+](=O)[O-])cc1[N+](=O)[O-])NC(=O)[C@H](Cc1ccc(O)cc1)NC(=O)[C@H](CC(=O)O)NC(=O)[C@H](CO)NC(=O)[C@H](Cc1ccccc1)NC(=O)CNC(=O)c1ccccc1N [II-Abz-GFS↓DYK(Dnp)-NH2, Abz-GFSDYK(Dnp)-NH2] (H-[2Abz]GFSDYK(Dnp)-NH2)
- decrease in catalytic efficiency compared with Abz-GFSDYK(Dnp)-OH (secPHEX [1]; COOH-terminus amidated analogue): 6 fold

Compound: NC(=O)[C@H](CCCCNc1ccc([N+](=O)[O-])cc1[N+](=O)[O-])NC(=O)[C@H](Cc1ccc(O)cc1)NC(=O)[C@H](CCC(=O)O)NC(=O)[C@H](CO)NC(=O)[C@H](Cc1ccccc1)NC(=O)CNC(=O)c1ccccc1N [V-Abz-GFSEYK(Dnp)-NH2, Abz-GFSEYK(Dnp)-NH2] (H-[2Abz]GFSEYK(Dnp)-NH2)
- hydrolysis by secPHEX (result in words) (secPHEX [1]): Resistant
- hydrolysis by secPHEX (result in words) (secPHEX [1]; listed as Abz-GFSEYK(Dnp)-NH2): resistant to hydrolysis

Compound: CC(C)C[C@H](NC(=O)[C@H](Cc1c[nH]cn1)NC(=O)[C@H](CC(=O)O)NC(=O)c1ccccc1N)C(=O)N[C@@H](CO)C(=O)N[C@@H](CC(=O)O)C(=O)N[C@H](C(=O)N[C@@H](CO)C(=O)N[C@H](C(=O)N[C@@H](CCC(N)=O)C(=O)NCCNc1ccc([N+](=O)[O-])cc1[N+](=O)[O-])[C@@H](C)O)[C@@H](C)O [I-Abz-D125-HLS↓DTSTQ-EDDnp, Abz-DHLSDTSTQ-edDnp] (H-[2Abz]DHLSDTSTQ-EDDnp)
- suitability as secPHEX substrate (secPHEX [2]): good secPHEX substrate
- suitability as secPHEX substrate (secPHEX [3]): good secPHEX substrate

Compound: Abz-GFRDWK-Dnp ([2Abz]GFRDWK-{Dnp′}) [S1]
- suitability as secPHEX substrate (secPHEX [2]): good secPHEX substrate
- suitability as secPHEX substrate (secPHEX [3]): good secPHEX substrate
